The assay deals with T1, human Farnesoid X Receptor (FXR) ligand binding domain (GST-FXR LBD) (Homo sapiens, UniProt Q96RI1).
T1 construct: purchased Invitrogen
T1 sequence (Q96RI1 193-472 isoform Q96RI1-2): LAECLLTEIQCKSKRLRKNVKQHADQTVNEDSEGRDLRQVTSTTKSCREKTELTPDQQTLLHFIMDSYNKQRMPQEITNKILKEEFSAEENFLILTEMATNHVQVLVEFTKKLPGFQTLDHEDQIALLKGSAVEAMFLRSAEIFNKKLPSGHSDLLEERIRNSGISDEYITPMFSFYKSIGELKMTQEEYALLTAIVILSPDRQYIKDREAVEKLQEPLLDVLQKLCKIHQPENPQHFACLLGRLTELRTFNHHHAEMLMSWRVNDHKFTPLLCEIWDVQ
The assay can be described thus: Human GST-FXR LBD co-activator interaction assay (FXR HTRF assay). In kind it is biochemical. To be noted: GST-FXR LBD interaction with biotin-labeled SRC-1 peptide, FRET, response relative to GW4064, read-out: FXR coactivator interaction assay (HTRF). The text has this:
Human GST-FXR LBD Co-Activator Interaction Assay
The FXR HTRF assay is a biochemical assay measuring the interaction between FXR and a coactivator protein (SRC1). The ligand-induced interaction with a coactivator protein is a critical step in transcriptional activation by FXR. Thus, this is an assay designed to measure FXR agonist activity of the test compounds.
Recombinant human Farnesoid X Receptor (FXR) ligand binding domain (amino acids 193-472) fused to glutathione S-transferase (GST) purified protein (GST-FXR LBD) was purchased (Invitrogen). The ligand-dependent interaction between GST-FXR LBD and a peptide derived from Steroid Receptor Coactivator-1 (SRC-1) was monitored by Fluorescence Resonance Energy Transfer (FRET). […] Test compounds (in DMSO solution) and detection reagents (anti-GST-Cryptate labeled antibody and Streptavidin-XL665 conjugate; CisBio) were added in assay buffer containing 50 mM KF. Plates are incubated at room temperature in the dark for 2.5 hrs before reading on an Envision (PerkinElmer) at 665 nm and 590 nm. The HTRF assay results were calculated from the 665 nm/590 nm ratio (ratio=(A665 nm/A590 nm)×10^4) and expressed in Delta F %=(Ratiosample−Rationegative)/Rationegative×100.
A negative control (without Streptavidin-XL665) was run with each assay and represented the background fluorescence. A reference FXR agonist, (E)-3-(2-chloro-4-((3-(2,6-dichlorophenyl)-5-isopropylisoxazol-4-yl)methoxy)styryl)benzoic acid (Compound GW4064), was included in each experiment as positive control. The efficacy of each test compound was compared to that of GW4064. At each concentration, the relative activity of the test compound was expressed as Response %=(Rsample−RDMSO)/(Rpositive−RDMSO), where Rsample is the HTRF response (expressed in Delta F %) for the test compound, Rpositive is the maximal response for GW4064 at saturating concentrations, and RDMSO is the response for DMSO control. The EC50 values were calculated using GraphPad Prism (GraphPad Software) using non-linear regression curve fit (log(agonist) vs. response-variable slope (four parameters)).
(In general: In TR-FRET formats the signal depends on donor and acceptor labels being close together.)
In the case of `Cn1nc(C(=O)N(CC(=O)Nc2cccc(C(=O)O)c2)CC2CCCC2)c2c1-c1cc(Cl)ccc1OC2` [Compound 37, 3-(2-(8-chloro-N-(cyclopentylmethyl)-1-methyl-1,4-dihydrochromeno[4,3-c]pyrazole-3-carboxamido)acetamido)benzoic Acid], the EC50 is 24 nM. The value for `Cn1nc(C(=O)N(CC(=O)Nc2cccc(C(=O)O)c2)Cc2ccccc2F)c2c1-c1cc(F)ccc1OC2` [Compound 7, 3-(2-(8-fluoro-N-(2-fluorobenzyl)-1-methyl-1,4-dihydrochromeno[4,3-c]pyrazole-3-carboxamido)acetamido)benzoic acid] was 1 nM; that for `Cn1nc(C(=O)N(Cc2ccc(C(=O)O)nc2)Cc2cccc(F)c2)c2c1-c1cc(Cl)ccc1OC2` [Compound 87, 5-((8-chloro-N-(3-fluorobenzyl)-1-methyl-1,4-dihydrochromeno[4,3-c]pyrazole-3-carboxamido)methyl)picolinic acid] was 28 nM; that for `Cn1nc(C(=O)N(CCOc2c(F)cc(C(=O)O)cc2F)Cc2ccccc2)c2c1-c1cc(Cl)ccc1OC2` [Compound 52, 4-(2-(N-benzyl-8-chloro-1-methyl-1,4-dihydrochromeno[4,3-c]pyrazole-3-carboxamido)ethoxy)-3,5-difluorobenzoic acid] was 2.6 nM. In the case of `Cn1nc(C(=O)N(CC(=O)NCC(C)(C)C(=O)O)Cc2ccccc2F)c2c1-c1cc(Cl)ccc1OC2` [Compound 41, 3-(2-(8-chloro-N-(2-fluorobenzyl)-1-methyl-1,4-dihydrochromeno[4,3-c]pyrazole-3-carboxamido)acetamido)-2,2-dimethylpropanoic acid], the EC50 is 4 nM.

`Cn1nc(C(=O)N(CC(=O)Nc2cccc(C(=O)O)c2)Cc2ccccc2F)c2c1-c1ccc(F)cc1OC2` [Compound 8, 3-(2-(7-fluoro-N-(2-fluorobenzyl)-1-methyl-1,4-dihydrochromeno[4,3-c]pyrazole-3-carboxamido)acetamido)benzoic acid]: the EC50 came to 3.3 nM. Then `Cn1nc(C(=O)N(CC(=O)Nc2cccc(C(=O)O)c2)Cc2ccccc2F)c2c1-c1cc(F)c(F)cc1OC2` [Compound 10], with 1.7 nM; and `CC(CNC(=O)CN(Cc1ccccc1F)C(=O)c1nn(C)c2c1COc1ccc(Cl)cc1-2)C(=O)O` (centres unmarked) [Compound 40, 3-(2-(8-chloro-N-(2-fluorobenzyl)-1-methyl-1,4-dihydrochromeno[4,3-c]pyrazole-3-carboxamido)acetamido)-2-methylpropanoic Acid], with 8.6 nM. Then `Cn1nc(C(=O)N(CC(=O)Nc2cccc(C(=O)O)c2)Cc2ccccc2F)c2c1-c1cc(Cl)ccc1OC2` [Compound 35, 3-(2-(8-chloro-N-(2-fluorobenzyl)-1-methyl-1,4-dihydrochromeno[4,3-c]pyrazole-3-carboxamido)acetamido)benzoic Acid], with 0.77 nM; and `Cc1ccc(C(=O)O)cc1NC(=O)CN(Cc1ccccc1F)C(=O)c1nn(C)c2c1COc1ccc(Cl)cc1-2` [Compound 30], with 0.6 nM. The value for `Cn1nc(C(=O)N(CCOc2ccc(C(=O)O)cc2F)Cc2cccc(F)c2)c2c1-c1cc(F)c(F)cc1OC2` [Compound 59, 4-(2-(7,8-difluoro-N-(3-fluorobenzyl)-1-methyl-1,4-dihydrochromeno[4,3-c]pyrazole-3-carboxamido)ethoxy)-3-fluorobenzoic acid] was 28 nM; that for `Cn1nc(C(=O)N(CCOc2ccc(C(=O)O)cc2F)Cc2ccccc2F)c2c1-c1cc(Cl)ccc1OC2` [Compound 43, 4-(2-(8-chloro-N-(2-fluorobenzyl)-1-methyl-1,4-dihydrochromeno[4,3-c]pyrazole-3-carboxamido)ethoxy)-3-fluorobenzoic Acid] was 18 nM. Regarding `Cn1nc(C(=O)N(CCOc2cccc(C(=O)O)c2)Cc2ccccc2F)c2c1-c1cc(Cl)ccc1OC2` [Compound 44, 3-(2-(8-chloro-N-(2-fluorobenzyl)-1-methyl-1,4-dihydrochromeno[4,3-c]pyrazole-3-carboxamido)ethoxy)benzoic acid], the EC50 was 11 nM.

Regarding `Cn1nc(C(=O)N(CC(=O)Nc2cccc(C(=O)O)c2)Cc2ccccc2F)c2c1-c1cc(F)cc(F)c1OC2` [Compound 11, 3-(2-(6,8-difluoro-N-(2-fluorobenzyl)-1-methyl-1,4-dihydrochromeno[4,3-c]pyrazole-3-carboxamido)acetamido)benzoic acid], the EC50 was found to be 3.3 nM. In the case of `Cn1nc(C(=O)N(CC(=O)Nc2cc(C(=O)O)ccc2F)Cc2cccc(F)c2)c2c1-c1ccccc1OC2` [Compound 27, 4-fluoro-3-(2-(N-(3-fluorobenzyl)-1-methyl-1,4-dihydrochromeno[4,3-c]pyrazole-3-carboxamido)acetamido)benzoic acid], the EC50 amounted to 1.4 nM. Turning to `Cn1nc(C(=O)N(Cc2ccccc2F)Cc2ccc(C(=O)O)cc2F)c2c1-c1cc(F)ccc1OC2` [Compound 94, 3-fluoro-4-((8-fluoro-N-(2-fluorobenzyl)-1-methyl-1,4-dihydrochromeno[4,3-c]pyrazole-3-carboxamido)methyl)benzoic acid], the EC50 came to 32 nM. Take `Cn1nc(C(=O)N(CCOc2cc(C(=O)O)ccc2F)Cc2ccccc2F)c2c1-c1cc(Cl)ccc1OC2` [Compound 48, 3-(2-(8-chloro-N-(2-fluorobenzyl)-1-methyl-1,4-dihydrochromeno[4,3-c]pyrazole-3-carboxamido)ethoxy)-4-fluorobenzoic acid]: the EC50 was found to be 61 nM. As to `Cn1nc(C(=O)N(CCOc2c(F)cc(C(=O)O)cc2F)Cc2ccccc2)c2c1-c1cc(F)ccc1OC2` [Compound 54, 4-(2-(N-benzyl-8-fluoro-1-methyl-1,4-dihydrochromeno[4,3-c]pyrazole-3-carboxamido)ethoxy)-3,5-difluorobenzoic acid], the EC50 was determined as 21 nM. Then `Cn1nc(C(=O)N(CC(=O)Nc2cccc(C(=O)O)c2)Cc2ccccc2F)c2c1-c1cc(Cl)cc(F)c1OC2` [Compound 15, 3-(2-(8-chloro-6-fluoro-N-(2-fluorobenzyl)-1-methyl-1,4-dihydrochromeno[4,3-c]pyrazole-3-carboxamido)acetamido)benzoic acid], with 2.22 nM; and `Cc1ccc(C(=O)O)cc1NC(=O)CN(Cc1ccccc1F)C(=O)c1nn(C)c2c1COc1ccc(Cl)cc1-2` [Compound 39], with 5.9 nM; and `Cn1nc(C(=O)N(CC(=O)Nc2cccc(C(=O)O)c2)Cc2ccccc2F)c2c1-c1cc(Cl)ccc1CC2` [Compound 24, 3-(2-(8-chloro-N-(2-fluorobenzyl)-1-methyl-4,5-dihydro-1H-benzo[g]indazole-3-carboxamido)acetamido)benzoic acid], with 3.2 nM. Regarding `Cn1nc(C(=O)N(CCOc2ccc(C(=O)O)cc2F)Cc2ccccc2F)c2c1-c1cc(F)c(F)cc1OC2` [Compound 62, 4-(2-(7,8-difluoro-N-(2-fluorobenzyl)-1-methyl-1,4-dihydrochromeno[4,3-c]pyrazole-3-carboxamido)ethoxy)-3-fluorobenzoic acid], the EC50 worked out at 74 nM.

Take `Cn1nc(C(=O)N(CCNc2cc(C(=O)O)ccc2F)Cc2ccccc2F)c2c1-c1ccccc1OC2` [Compound 70, 4-fluoro-3-((2-(N-(2-fluorobenzyl)-1-methyl-1,4-dihydrochromeno[4,3-c]pyrazole-3-carboxamido)ethyl)amino)benzoic acid]: the EC50 amounted to 81 nM.

Source of the values: patent US11021446B2 (NOVARTIS AG, priority 2013, dated 2021).
